Experimental data as given in patent publication US4277465A, “Adjuvant for promoting absorption of therapeutically active substances through the digestive tract” (Kyoto Yakuhin Kogyo Kabushiki Kaisha, priority 1978, dated 1981).

Columns and labels:
[1] = Rectal suppositories of CET-Na with enamine derivative, concentration in blood; format: in vivo; settings: dog
Experimental: These suppositories were rectally administered to dogs and the absorbabilities of the active components were investigated by measuring the blood concentrations.
The blood concentrations were measured in conformity with the biological assay method in the Antibiotic Standard of Japan. The cup method was employed with Sarcina lutea for penicillins and Bacillus subtilis for cephalosporins.

[2] = Stability in aqueous solution (half-life of enamine derivatives); format: physicochemical; settings: pH 7.4 phosphate buffer, μ 0.15, 25° C., UV absorption spectrometry; "stable" = enamine structure retained even after 6 hours
Experimental: To examine the stability in water of the enamine derivatives (I) obtained above, some representative compounds were selected and their half-lives [t 0.5 (min.)] in pH 7.4 phosphate buffer (μ: 0.15, temp.: 25° C.) were determined by ultraviolet absorption spectrometry. In the Table, "stable" means that the enamine structure was retained even after 6 hours.

[3] = Rectal suppositories of AB-PC-Na with enamine derivative, concentration in blood; format: in vivo; settings: AB-PC-Na 75mg, dog
Experimental: These suppositories were rectally administered to dogs and the absorbabilities of the active components were investigated by measuring the blood concentrations. The blood concentrations were measured in conformity with the biological assay method in the Antibiotic Standard of Japan. The cup method was employed with Sarcina lutea for penicillins and Bacillus subtilis for cephalosporins.

[4] = Rectal inulin dosage form with adjuvant, urinary recovery of inulin; format: in vivo, human; settings: in Witepsol H-15, level of addition of enamine derivative 2%, Lunt method
Experimental: The following dosage forms (dispersed in Witepsol H-15®) were rectally administered to dogs and humans to measure the urinary recovery rates of inulin. […] The test was carried out by the Lunt method.

[5] = Rectal ointment of CET-Na with enamine derivative, blood concentration; format: in vivo, rabbit; settings: CET; rectal ointment CET.Na 20%, enamine derivative 10%; dose 50 mg CET.Na/kg
Experimental: Cephalothin sodium (briefly CET-Na), a drug which is sparingly absorbed from the rectum, was selected for a test. Thus, CET-Na was dispersed in liquid paraffin-white vaseline base to prepare rectal ointment. The ointment was administered to rabbits by the rectal route. […] The blood concentration was measured in conformity with the biological assay method in the Antibiotic Standard of Japan. […]

[6] = Rectal ointment of CEX.H2O with enamine derivative, blood concentration; format: in vivo, rabbit; settings: rectal ointment CEX.H2O 20%, enamine derivative 10%, dose 50 mg CEX.H2O/kg
Experimental: (§1) AB-PC and cephalexin (briefly, CEX), both of which are sparingly absorbed from the rectum, are also tested. Thus, enamine derivatives (I) and these antibiotics were used to prepare rectal ointments in accordance with established practice. The ointments were administered to rabbits to investigate the peak blood concentrations (μg/ml) and AUC (μg.min./ml).
Dose: 50 mg CEX . H2 O/kg

[7] = Rectal ointment of AB-PC.Na with enamine derivative, blood concentration; format: in vivo, rabbit; settings: rectal ointment AB-PC.Na 10%, enamine derivative 10%, dose 15 mg AB-PC.Na/kg
Experimental: as §1
Dose: 15mg AB-PC . Na/kg
Compounds 3, 5, 13 and 14 were used as said enamine derivatives (I) in Recipes 4, 5, 6 and 7, respectively.

[8] = Rectal insulin suppositories (Recipes 35-41), glucose response; format: in vivo; settings: rectal suppository 6 I.U. insulin, enamine derivative 0.025g (5%)
Excerpt: These suppositories were rectally administered to rabbits (R, 2.5-3kg) and dogs (D, 12-13kg).

[9] = CET-Na 500mg, enamine derivative 150mg (10%), base Witepsol H-15 850mg
[10] = enamine derivative 60mg, base SB-W 1065mg
[11] = enamine derivative 120mg (10%), base SB-W 1005mg
[12] = CET-Na 75mg, enamine derivative 60mg (5%), base SB-W 1065mg
[13] = CET-Na 75mg, enamine derivative 60mg (5%), base Witepsol H-15 1065mg
[14] = CET-Na 75mg, enamine derivative 120mg (10%), base Witepsol H-15 1005mg

CCOC(=O)C=C(C)NC(Cc1ccccc1)C(=O)[O-].[Na+] (racemic) [Compound 10, N-(1-Methyl-2-ethoxycarbonylvinyl)-DL-phenylalanine sodium salt]
Concentration in blood, 15 min. [1, 9]: 15300 ng/mL | Concentration in blood, 30 min. [1, 9]: 11730 ng/mL | Concentration in blood, 60 min. [1, 9]: 6750 ng/mL | Concentration in blood, 120 min. [1, 9]: 2200 ng/mL | half-life t 0.5 [2]: 15.7 min

CCOC(=O)C=C(C)NCC(=O)[O-].[Na+] [Compound 1, N-(1-Methyl-2-ethoxycarbonylvinyl)glycine sodium salt]
Concentration in blood, 15 min. [3, 10]: 1230 ng/mL | Concentration in blood, 30 min. [3, 10]: 870 ng/mL | Concentration in blood, 60 min. [3, 10]: 610 ng/mL | Concentration in blood, 120 min. [3, 10]: 320 ng/mL | % Urinary recovery [4]: 12% | half-life t 0.5 [2]: 3.7 min

CCOC(=O)C=C(C)NCCCC(=O)[O-].[Na+] [Compound 2, N-(1-Methyl-2-ethoxycarbonylvinyl)-γ-aminobutyric acid sodium salt]
AUC [5]: 315 µg·min/mL | Peak blood concentration [5]: 6.3 µg/mL | AUC [6]: 278 µg·min/mL | Peak blood concentration [6]: 6.7 µg/mL | half-life t 0.5 [2]: 18.8 min

CC(=O)C=C(C)N[C@@H](C(=O)[O-])c1ccccc1.[Na+] [Compound 4, N-(1-Methyl-2-acetylvinyl)-D-phenylglycine sodium salt]
AUC [5]: 568 µg·min/mL | Peak blood concentration [5]: 11.0 µg/mL | half-life t 0.5 [2]: Stable

CCOC(=O)C(=CN[C@@H](C(=O)[O-])c1ccccc1)C(=O)OCC.[Na+] [Compound 5, N-[2,2-bis(ethoxycarbonyl)vinyl]-D-phenylglycine sodium salt]
AUC [5]: 306 µg·min/mL | Peak blood concentration [5]: 6.1 µg/mL | half-life t 0.5 [2]: Stable | AUC [7]: 149 µg·min/mL | Peak blood concentration [7]: 4.7 µg/mL

CC(N[C@@H](C(=O)[O-])c1ccccc1)=C1CCOC1=O.[Na+] [Compound 6, N-[1-(Tetrahydro-2-furanone-3-ylidene)ethyl]-D-phenylglycine sodium salt]
half-life t 0.5 [2]: 478 min

CCCCOC(=O)C1=C(N[C@@H](C(=O)[O-])c2ccccc2)CCC1.[Na+] [Compound 7, N-(2-Butoxycarbonyl-1-cyclopenten-1-yl)-D-phenylglycine sodium salt]
half-life t 0.5 [2]: Stable

CCOC(=O)C=C(C)N[C@@H](C(=O)OC)c1ccccc1 [Compound 8, Methyl-N-(1-methyl-2-ethoxycarbonylvinyl)-D-phenylglycinate]
AUC [5]: 49 µg·min/mL | Peak blood concentration [5]: 3.8 µg/mL

CCOC(=O)C=C(C)N1CCC[C@H]1C(=O)[O-].[Na+] [Compound 13, N-(1-Methyl-2-ethoxycarbonylvinyl)-L-proline sodium salt]
AUC [5]: 25 µg·min/mL | Peak blood concentration [5]: 2.5 µg/mL | AUC [6]: 733 µg·min/mL | Peak blood concentration [6]: 6.5 µg/mL | half-life t 0.5 [2]: 3.1 min | AUC [7]: 108 µg·min/mL | Peak blood concentration [7]: 2.6 µg/mL

CCOC(=O)C=C(C)NCCS(=O)(=O)[O-].[Na+] [Compound 14, N-(1-Methyl-2-ethoxycarbonylvinyl)taurine sodium salt]
AUC [5]: 250 µg·min/mL | Peak blood concentration [5]: 7.8 µg/mL | half-life t 0.5 [2]: 24.0 min | AUC [7]: 239 µg·min/mL | Peak blood concentration [7]: 5.9 µg/mL

CCOC(=O)C=C(C)NCC(=O)NCC(=O)[O-].[Na+] [Compound 15, N-(1-Methyl-2-ethoxycarbonylvinyl)glycylglycine sodium salt]
AUC [5]: 102 µg·min/mL | Peak blood concentration [5]: 1.8 µg/mL | half-life t 0.5 [2]: 31.8 min

CCOC(=O)C=C(C)N[C@@H](CCC(=O)[O-])C(=O)[O-].[Na+].[Na+] [Compound 16, N-(1-Methyl-2-ethoxycarbonylvinyl)-L-glutamic acid sodium salt]
Concentration in blood, 15 min. [3, 11]: 690 ng/mL | Concentration in blood, 30 min. [3, 11]: 480 ng/mL | Concentration in blood, 60 min. [3, 11]: 520 ng/mL | Concentration in blood, 120 min. [3, 11]: 290 ng/mL | half-life t 0.5 [2]: 16.3 min

CCOC(=O)C=C(C)NCCCC[C@H](NC(C)=CC(=O)OCC)C(=O)[O-].[Na+] [Compound 17, N,N'-Bis(1-methyl-2-ethoxycarbonylvinyl)-L-lysine sodium salt]
AUC [5]: 396 µg·min/mL | Peak blood concentration [5]: 8.7 µg/mL | half-life t 0.5 [2]: 22.9 min

CCOC(=O)C(C)OC(=O)C=C(C)NCC(=O)[O-].[Na+] (stereo not shown) [Compound 32, N-[1-Methyl-2-(1-ethoxycarbonyl-ethoxycarbonyl)vinyl]glycine sodium salt]
Blood glucose response (6 I.U.) ([8]; dog 12-13kg): 30-40% | Time course: Lowest level ([8]; dog 12-13kg): 30 to 60 min | Time course: Onset ([8]; dog 12-13kg): 30 min | Time course: Return to pre-medication level ([8]; dog 12-13kg): 120 min | Blood glucose response (6 I.U.) ([8]; rabbit 2.5-3kg): 45-55% | Time course: Lowest level ([8]; rabbit 2.5-3kg): 45 to 60 min | Time course: Onset ([8]; rabbit 2.5-3kg): 15 min | Time course: Return to pre-medication level ([8]; rabbit 2.5-3kg): 150 min | Concentration in blood, 15 min. [1, 12]: 1500 ng/mL | Concentration in blood, 30 min. [1, 12]: 1120 ng/mL | Concentration in blood, 60 min. [1, 12]: 730 ng/mL | Concentration in blood, 120 min. [1, 12]: 400 ng/mL

CCOC(=O)C(C)OC(=O)C=C(C)N[C@@H](Cc1ccccc1)C(=O)[O-].[Na+] (stereo partly drawn) [Compound 34, N-[1-Methyl-2-(1-ethoxycarbonyl-ethoxycarbonyl)vinyl]-L-phenylalanine sodium salt]
Blood glucose response (6 I.U.) ([8]; rabbit 2.5-3kg): 45-55% | Time course: Lowest level ([8]; rabbit 2.5-3kg): 45 to 60 min | Time course: Onset ([8]; rabbit 2.5-3kg): 15 min | Time course: Return to pre-medication level ([8]; rabbit 2.5-3kg): 150 min | Concentration in blood, 15 min. [1, 13]: 1250 ng/mL | Concentration in blood, 30 min. [1, 13]: 830 ng/mL | Concentration in blood, 60 min. [1, 13]: 610 ng/mL | Concentration in blood, 120 min. [1, 13]: 390 ng/mL

CCOC(=O)CNC(=O)C=C(C)N[C@@H](Cc1ccccc1)C(=O)[O-].[Na+] [Compound 37, N-(1-Methyl-2-ethoxycarbonylmethylcarbamoyl-vinyl)-L-phenylalanine sodium salt]
Blood glucose response (6 I.U.) ([8]; rabbit 2.5-3kg): 20-30% | Time course: Lowest level ([8]; rabbit 2.5-3kg): 30 to 60 min | Time course: Onset ([8]; rabbit 2.5-3kg): 30 min | Time course: Return to pre-medication level ([8]; rabbit 2.5-3kg): 120 min | Concentration in blood, 15 min. [1, 14]: 1500 ng/mL | Concentration in blood, 30 min. [1, 14]: 1280 ng/mL | Concentration in blood, 60 min. [1, 14]: 870 ng/mL | Concentration in blood, 120 min. [1, 14]: 440 ng/mL
